In data set [1] the target is T1, GABAA/α2 (α2β3γ2 GABAA receptors) (Homo sapiens, UniProt P18507+P47869).
T1 construct: expressed in transfected cells
In words: Competitive binding assay, [3H]flunitrazepam. On the procedure: (§1) The GABAA subunit selectivity of several compounds prepared as described above were determined using competitive binding assays. […] Membranes were harvested with a Brandel cell harvester followed by three ice-cold washes onto polyethyleneimine-pretreated (0.3%) Whatman GF/C filters. Filters were dried overnight and then soaked in Ecoscint, a liquid scintillation cocktail (National Diagnostics; Atlanta, Ga.). Bound radioactivity was quantified by liquid scintillation counting. Membrane protein concentrations were determined using an assay kit from Bio-Rad (Hercules, Calif.) with bovine serum albumin as the standard.

Data set [2] addresses T2, GABAA/α5 (α5β3γ2 GABAA receptors) (Homo sapiens, UniProt P18507+P31644).
T2 construct: expressed in transfected cells
Put plainly: Competitive binding assay, [3H]flunitrazepam. On the procedure: as §1

The target of data set [3] is T3, GABAA/α3 (α3β3γ2 GABAA receptors) (Homo sapiens, UniProt P18507+P34903).
T3 construct: expressed in transfected cells
In words: Competitive binding assay, [3H]flunitrazepam. As for the experimental part: as §1

For data set [4], the target named is T4, GABAA/α1 (α1β3γ2 GABAA receptors) (Homo sapiens, UniProt P14867+P18507).
T4 construct: expressed in transfected cells
In words: Competitive binding assay, [3H]flunitrazepam. On the procedure: as §1

For data set [5], the target named is T5, GABAA/α6 (α6β3γ2 GABAA receptors) (Homo sapiens, UniProt P18507+Q16445).
T5 construct: expressed in transfected cells
Put plainly: Competitive binding assay, [3H]flunitrazepam. As for the experimental part: as §1

A short description of data set [6]: Plasma levels by LC-MS/MS (tolerance study). It counts as in vivo, Sprague Dawley rats. On the procedure:
Immediately after testing, blood was collected via cardiac puncture. Samples were spun down, plasma was collected and acetonitrile added. Samples were frozen at −80° C. and shipped to a commercial laboratory (Enthalpy) for analysis.
Group 3 (8 subjects) was dosed with vehicle only.

The test system of data set [7] is MES-induced seizures. Put plainly: Maximal electroshock test (MES), mice. The class given is in vivo. Particulars: Mice IP, 100 mg/kg. As for the experimental part:
(§2) The benzodiazepine derivative compounds selective for GABAa receptor subunits were tested for the ability to suppress seizures in several standard rat and mouse models of epilepsy. […] The standard models incorporated into anticonvulsant screening include the maximal electroshock test (MES), the subcutaneous Metrazol test (scMet), and evaluations of toxicity (TOX). The data for each condition is presented as a ratio of either the number of animals protected or toxic (loss of locomotor activity) over the number of animals tested at a given time point and dose.
The MES is a model for generalized tonic-clonic seizures and provides an indication of a compound's ability to prevent seizure spread when all neuronal circuits in the brain are maximally active. These seizures are highly reproducible and are electrophysiologically consistent with human seizures. For all tests based on MES convulsions, 60 Hz of alternating current (50 mA in mice, 150 in rats) is delivered for by corneal electrodes which have been primed with an electrolyte solution containing an anesthetic agent (0.5% tetracaine HCL). For Test 1, mice are tested at various intervals following doses of 30, 100 and 300 mg/kg of test compound given by ip injection of a volume of 0.01 mL/g. In Test 2, rats are tested after a dose of 30 mg/kg (po) in a volume of 0.04 mL/g. Test 8 uses varying doses administered via i.p. injection, again in a volume of 0.04 ml/g. […] In Antiepileptic Drugs, Levy, R. H. M., Meldrum, B. S., Eds.; Raven Press: New York, pp 99-110, 1995b.).
For orientation: Protection in the maximal electroshock model is a classic sign of anticonvulsant action.

Data set [8] concerns minimal muscular or neurological impairment. In words: Toxicity (TOX), rotorod procedure, mice. Particulars: Mice IP, 100 mg/kg. It counts as in vivo. On the procedure: as §2
To assess a compound's undesirable side effects (toxicity), animals are monitored for overt signs of impaired neurological or muscular function. […] When a mouse is placed on a rod that rotates at a speed of 6 rpm, the animal can maintain its equilibrium for long periods of time. The animal is considered toxic if it falls off this rotating rod three times during a 1-min period. In rats, minimal motor deficit is indicated by ataxia, which is manifested by an abnormal, uncoordinated gait. Rats used for evaluating toxicity are examined before the test drug is administered, since individual animals may have peculiarities in gait, equilibrium, placing response, etc., which might be attributed erroneously to the test substance.
On the technique in general: Falling from the rotarod earlier than controls is read as motor impairment.

In data set [9] the test system is Metrazol-induced clonic seizures. Put plainly: Subcutaneous Metrazol test (scMet), mice. The class given is in vivo. Particulars: Mice IP, 100 mg/kg. As for the experimental part:
as §2
Subcutaneous injection of the convulsant Metrazol produces clonic seizures in laboratory animals. […] Animals are pretreated with various doses of the test compound (in a similar manner to the MES test, although a dose of 50 mg/kg (po) is the standard for Test 2 scMet). At the previously determined TPE of the test compound, the dose of Metrazol which will induce convulsions in 97% of animals (CD97: 85 mg/kg mice) is injected into a loose fold of skin in the midline of the neck. […] An episode of clonic spasms, approximately 3-5 seconds, of the fore and/or hindlimbs, jaws, or vibrissae is taken as the endpoint.

Data set [10] deals with T6, GABAA/α4 (α4β3γ2 GABAA receptors) (Homo sapiens, UniProt P18507+P48169).
T6 construct: expressed in transfected cells
In words: Competitive binding assay, [3H]flunitrazepam. On the procedure:
as §1

The mark [11] stands for this setting: Binding Affinity at GABAA/α2, αxβ3γ2, [3H]flunitrazepam competition.
[12] abbreviates: Binding Affinity at GABAA/α1, αxβ3γ2, [3H]flunitrazepam competition.
Setting [13] is: Binding Affinity at GABAA/α5, αxβ3γ2, [3H]flunitrazepam competition.
[14] abbreviates: Binding Affinity at GABAA/α3, αxβ3γ2, [3H]flunitrazepam competition.

“And” between values parts separate entries of the source, which are not always exact repeats. Equal entries are not always repeated. Where two headings read alike, the source gives them in different places.

For `C[Si](C)(C)C#Cc1ccc2c(c1)C(c1ccccc1F)=NCc1c(C(=O)OCC(F)(F)F)ncn1-2` [JYI-53, Trifluoroethyl-8-trimethylsilylacetylenyl-6-(2′-fluorophenyl)-4H-benzo[f]imidazo[1,5-a][1,4]diazepine-3-carboxylate], the Ki came to 40.4 nM in data set [1] (setting [11]); 133 nM in [2] (αxβ3γ2, [3H]flunitrazepam competition, read-out: Binding Affinity at GABAA/α5); 183 nM in data set [3] (αxβ3γ2, [3H]flunitrazepam competition, read-out: Binding Affinity at GABAA/α3); 77.4 nM in data set [4] (setting [12]); 3650 nM in data set [5] (αxβ3γ2, [3H]flunitrazepam competition, read-out: Binding Affinity at GABAA/α6).

On to `C#Cc1ccc2c(c1)C(c1ccccn1)=NCc1c(C(=O)O)ncn1-2` [HZ-166 acid], for which the “HZ-166 acid, plasma average with outliers excluded” value in data set [6] (Group 1 (five days dosing of HZ-166)) amounted to 9.03 nmol/mL; in [6] (Group 2 (HZ-166 on day 5 only)), 8.72 nmol/mL. Further, the “Conc HZ-166 acid in plasma, individual subjects” value in data set [6] (Group 1: HZ-166 35.5 mg/kg ip for five days, blood after test on day 5) was 2910 ng/mL and 2570 ng/mL and 3430 ng/mL and 2830 ng/mL and BLQ < (1.00) ng/mL and 3780 ng/mL and 3310 ng/mL and 1900 ng/mL; in [6] (Group 2: HZ-166 35.5 mg/kg ip on day 5 only), 3270 ng/mL and 2180 ng/mL and 167 ng/mL and 3120 ng/mL and 3100 ng/mL and 3690 ng/mL and 2590 ng/mL and 2080 ng/mL.

Regarding `C#Cc1ccc2c(c1)C(c1ccccc1)=NCc1c(C(=O)OCC(F)(F)F)ncn1-2` [DM-II-20, Trifluoroethyl 8-acetylenyl-6-phenyl-4H-benzo[f]imidazo[1,5-a][1,4]diaze-pine-3-carboxylate], the melting point – broadly, the temperature of the solid-liquid transition – was in the range of 188 to 190 °C. The Ki in [1] (setting [11]) came out at 177 nM. Besides, the Ki in [2] (setting [13]) is 198 nM. For the same compound, the Ki in data set [3] (setting [14]) came to 35.7 nM. The same compound gave a Ki in data set [4] (setting [12]) of 5720 nM.

Consider `C#Cc1ccc2c(c1)C(c1cccs1)=NCc1c(C(=O)OCC)ncn1-2` [JC 221 (76), Ethyl 8-acetyleno-6-(2′-thienyl)-4H-benzo[f]imidazo[1,5-a][1,4]diazepine-3-carboxylate], for which the Ki in [1] (αxβ3γ2, [3H]flunitrazepam competition, read-out: Binding Affinity at GABAA/α2) came out at 35 nM; in data set [2] (setting [13]) it was 14.3 nM; in data set [3] (setting [14]) it was 182 nM; in [4] (αxβ3γ2, [3H]flunitrazepam competition, read-out: Binding Affinity at GABAA/α1), 146 nM; in data set [5] it was 362 nM. Further, the “MES, animals protected/tested” value in [7] (0.5 hr) and in data set [7] (4.0 hr) was 0/3 each time. The “TOX (Rotorod Test), animals toxic/tested” value is on record as 0/8 in data set [8] (0.5 hr) and 0/4 in data set [8] (4.0 hr). The “scMet, animals protected/tested” value in data set [9] (0.5 hr) and in data set [9] (4.0 hr) was 0/1 each time.

Turning to `C#Cc1ccc2c(c1)C(c1ccccc1F)=NC(C)c1c(C(=O)OCC)ncn1-2` (single isomer, unassigned) [SH-053-2′F-R-CH3, 8-Ethynyl-6-(2-fluorophenyl)-4-methyl-4H-2,5,10b-triaza-benzo[e]azulene-3-carboxylic acid ethyl ester], the Ki in [10] and in [5] was over 5000 nM in each case.

Turning to `CN1C(=O)CN=C(c2ccccc2)c2cc(Cl)ccc21` [Diazepam, reference compound], the Ki in data set [10] and in data set [5] was over 1000 nM each time.
